From patent US12246044B2, “Bacterial and cell compositions for the treatment of colorectal cancer and methods for assessing a prognosis for patients having the same” (priority 2017, dated 2025)

Columns and labels:
ileal and colonic IEC = assay: Immunohistochemistry of cleaved caspase-3 in colon and ileal mucosae after OXA i.p.; format: in vivo, mice; details: 6 h after OXA i.p.; ileal versus colonic IEC
Procedure: Donor mice were treated with oxaliplatin (10 mg/kg) i.p. for 6 h to induce gut cell death. Control animals were treated with vehicle (PBS) alone. The composition of the commensal gut microbiota in the treated and non-treated groups was maintained synchronized by cohousing. At the end of the treatment, mice were euthanized and the ileum was collected to isolate IEC. One million IECs were then injected s.c. into the left flank of the recipient mice. The procedure was repeated once, 7 days later. Tumor challenge was performed on the right flank 7 days after the last immunization, with doses which obtain 100% of tumor incidence in naïve mice, MC38 (1×10^6 cells), MCA205 (0.8×10^6 cells), CT26 (1×10^6 cells) and 4T1 (0.3×10^6 cells).
FFPE gut sections were deparaffinised and rehydrated through a series of graded alcohols and distilled water. Antigen retrieval was performed by pre-treating sections with 0.01 M sodium citrate buffer (pH 6.0, Diapath) for 30 min in a 98° C. water bath. Endogenous peroxidase activity was inhibited by treating sections with 3% […] (#S202386, DAKO) for 10 min. Sections were blocked with IHC/ISH Super Blocking (#PV6122, LeicaBiosystem) for 10 min. […] Peroxidases were detected with Di Amino Benzidine-peroxidase substrate kit (DAKO), and counterstained with Mayer's haematoxylin. […]

ileal mucosae = assay: qRT-PCR of immune gene transcripts in ileal mucosae of avatar mice; format: in vivo; details: avatar responders compared to avatar non-responders
Procedure: Total RNA from gut biopsies was extracted with RNeasy Mini Kit (Qiagen) and then reverse transcribed into cDNA with the SuperScript III Reverse Transcriptase and the RNaseOUT™ Recombinant Ribonuclease Inhibitor (Life Technologies, Saint Aubin, France), in the presence of random primers (Promega, Charbonnieres, France) and the Deoxynucleoside Triphosphate Set, PCR grade (Roche Diagnostics, Meylan, France). cDNA was analyzed by real-time quantitative PCR (RT-qPCR) with the TaqMan method with TaqMan® Gene Expression Assays using the Universal Master Mix II (Invitrogen) according to the manufacturer's instructions using the 7500 Fast Real Time PCR system (Applied Biosystems). Expression was normalized to the expression of the housekeeping gene of Beta 2 Microglobulin by means of the 2^−ΔCt method.

[1] = tested on: small intestine enteroids; assay: OXA treatment of stem cell derived small intestine enteroids in vitro; format: cell-based, C57BL/6J mice; details: culminating in calreticulin cell surface exposure, data not shown
Procedure: Crypts were isolated and enriched from the ileum of 8-12 week old C57BL/6J mice as previously described (24) with the following modifications. Briefly, washed pieces of ileum were incubated in crypt chelating buffer (2 mM EDTA in PBS) for 30 minutes on ice. Following the removal of crypt chelating buffer, fragments were vigorously rinsed 3 times with PBS containing 10% FCS and filtered through a 70-μm cell strainer (BD Bioscience). Crypts were pelleted, washed with Advanced DMEM/F12 (ADF) (Invitrogen), resuspended in 1 mL of Matrigel growth factor reduced basement membrane matrix (Corning) and 50 uL drops were pipetted into a 24 well plate. Crypts were overlayed with ADF containing the following: 100 U/mL penicillin G sodium, 100 μg/mL streptomycin sulphate, 2 mM L-glutamine, 10 mM HEPES, 1× N2 supplement, 1× B27 supplement, 50 ng/mL mEGF, 100 ng/mL mNoggin (Peprotech, Hamburg, Germany), N-acetylcysteine (Sigma) (reagents from Invitrogen unless otherwise indicated) and 10% conditioned medium of R-Spondin-1 transfected HEK 293T cells.
IEC suspensions were obtained from enteroids by means of 3 wash dissociation method, as described above. […]

MC38 tumors = assay: FMT avatar mice (GF mice colonized with PCAC patient colonic content), MC38, OXA; format: in vivo, C57BL/6J mice; details: 12 PCAC patient feces tested
Procedure: (§1) Syngeneic C57BL/6J mice were implanted with 1×10^6 MC38 WT cells subcutaneously and treated intraperitoneally (i.p.) when tumors were 20 to 30 mm^2 in size with 10 mg/kg oxaliplatin or vehicule (PBS). The composition of the commensal gut microbiota in the treated and non-treated groups was maintained synchronized by cohousing. Tumor size was routinely monitored every 3 days by means of a caliper.
Frozen fecal samples were thawed and thoroughly vortexed. Large particulate material was allowed to settle by gravity. 200 μl of supernatant was administered in a single dose by oral gavage. Additionally, an extra 100 μl was topically applied onto the fur of each animal. The resulting gnotobiotic mice were maintained in positive pressurized isolators with irradiated food and autoclaved water. […]
Data analyses and representations were performed either with the statistical environment R, Microsoft Excel (Microsoft Co., Redmont, WA, USA) or Prism 5 (GraphPad, San Diego, CA, USA). Tumor growth was analysed with dedicated software (https://kroemerlab.shinyapps.io/TumGrowth). Briefly, data was subjected to a linear mixed effect modeling applied to log pre-processed tumor surfaces. p-values were calculated by testing jointly whether both tumor growth slopes and intercepts (on a log scale) were different between treatment groups of interests. […]

MC38 cancers = assay: MC38 tumor model in SPF mice, OXA + anti-PD-1 Abs plus oral gavage of live bacteria; format: in vivo, C57BL/6J mice; details: SPF mice (eubiosis), oral gavage of 10^9 cfu live bacteria before and after OXA
Procedure: as §1
PD-1 blockade was performed by i.p. treatment with anti-PD-1 mAbs (RMP1-14; 200 μg/mouse) or respective isotype controls (2A3) (all antibodies from Bioxcell).
Erysipelothrix tonsillarum and Solobacterium moorei were provided by Prof. Ivo Gomperts Boneca, Institut Pasteur, France. Bacteroides fragilis, Alistipes onderdonkii, Erysipelatoclostridium ramosum, Dialister invisus, Paraprevotella clara isolates were isolated in our laboratory from ileal mucus from patients used in vaccination experiments. Species were grown on COS plates in aerobic or an anaerobic atmosphere created using anaerobic generators (Biomerieux) at 37° C. for 24-72 hrs. Colonization of ATB pre-treated or GF C57BL/6J mice was performed by oral gavage with 100 μl of suspension containing 1×10^9 bacteria in PBS. For bacterial gavage, suspensions of 10^9 CFU/ml were obtained using a fluorescence spectrophotometer (Eppendorf) at an optical density of 1 measured at a wavelength of 600 nm. […]

naïve CD4+ T cells = assay: Differentiation of naive CD4+ T cells into Th1 cells by DCs charged with HIEC-6 (IFNg ELISA); format: cell-based, human; details: DCs charged with allogeneic HIEC-6 pre-exposed to bacteria and/or OXA; 6 healthy volunteers
Procedure: CD14+ cells were isolated from PBMC obtained from healthy donors (Miltenyi Kit). Monocytes were differentiated into DCs by adding GM-CSF and IL-4 in the culture medium for 6 days. On day 6, immature DCs were harvested and charged with apoptotic intestinal epithelial cells.
For apoptotic IEC cells preparation, HIEC-6 cells (ATCC) were treated with bacteria 1 h, OXA 3 h, and ATB 1 h, and then left ON. The next morning, Apoptotic cells were harvested, washed 3× in PBS and added to the DC culture.
Naïve CD4 T cells were isolated from the matched donor for each experiment (Miltenyi kit) and added to the DC-IEC culture at a 10:1 ratio. The final co-culture was incubated for 6 days. On day 6, anti-CD3 and anti-CD28 mAb were added to the culture. After 24 h incubation supernatants were assayed for IFNg by ELISA (Biolegend).

Compound	apoptosis-associated cleavage of caspase-3 in vivo (ileal and colonic IEC)	ileal TH1/TFH immune tone (Tbx21, Bcl6, Il27, Gata3, Ahr expression) in response to OXA (ileal mucosae)	apoptosis of enteroids [1]	patient feces inducing complete resistance to OXA (avatar non-responders) (MC38 tumors)	patient feces resulting in antitumor efficacy of OXA comparable to SPF mice (avatar responders) (MC38 tumors)	OXA+anti-PD-1 Ab-mediated anticancer effects against established MC38 cancers (MC38 cancers)	HIEC-6 rendered immunogenic (differentiation of T cells into Th1 cells, IFN-gamma) (naïve CD4+ T cells)
O=C1[O][Pt]2([NH][C@@H]3CCCC[C@H]3[NH]2)[O]C1=O [OXA, Oxaliplatin]	far more prominent in ileal than colonic IEC	decrease of the ileal TH1/TFH immune tone	triggered a dose-dependent apoptosis	4	8/12		
Bacteroides fragilis						improved OXA+anti-PD-1 Ab-mediated anticancer effects	rendered immunogenic
